One experiment concerns naive female rats. The experiment is described as follows: Cystometry test system on narcotized naive rats (suppression of spontaneous bladder contractions). The settings on record: i.v. cumulative; for minimal effective dose: Rattus norvegicus, iv, 10 min, read-out: Lowest dose at which for the first time contractions were absent over a period of 10 minutes. Format: in vivo, rat. The procedure: The cystometric investigation on naive female rats was carried out in accordance with the method of Kimura et al. (Kimura et al., 1996, Int. J. Urol. 3: 218-227). The abdomen of narcotized, ventilated rats is opened up and the ureter is ligated. The urine is drained from the kidneys. A catheter is inserted into the bladder and fixed. […] After stable starting values have been reached, the test substance is administered i.v. in a cumulative manner. Influencing of the bladder function manifests itself via suppression of the spontaneous contractions. In this context, the absence of contractions over a period of 10 min is a parameter for the suppression.
With all the substances listed here, a suppression of the spontaneous contractions was measurable in the rats, table 3 showing the mean of the lowest dose of at least 2 experiments at which for the first time contractions were absent over a period of 10 minutes.
With all the substances listed here, a suppression of the spontaneous contractions was measurable in the rats, table 4 showing the mean of the lowest dose of at least 2 experiments at which for the first time contractions were absent over a period of 10 minutes.
With all the substances listed here, a suppression of the spontaneous contractions was measurable in the rats, table 5 showing the mean of the lowest dose of at least 2 experiments at which for the first time contractions were absent over a period of 10 minutes. […]

A further experiment has as its system rat. Conditions: rat model of rhythmic bladder contractions; Nippon-Shinyaku, WO 98/46216; cited from earlier work.
For experiment [1], the system named is female Sprague-Dawley rats. The experiment is described as follows: Cystometry test system on conscious damaged rats (oxyhaemoglobin-induced bladder hyperactivity, urgency incontinence model).
Text: This model simulates the urgency incontinence in an animal model; the oxyhaemoglobin (OxyHb) employed induces a bladder hyperactivity.
Three days after implantation of bladder and venous catheters, the animals were investigated in the freely mobile, conscious state. The bladder catheter was connected to a pressure transducer and an injection pump. The animals were placed in metabolism cages which allowed measurement of the volume of urine. Physiological saline solution was infused into the emptied bladder (10 ml/h) and the bladder pressure and micturition volume were recorded continuously. After a stabilization phase, a 20 minute phase, which was characterized by normal, reproducible micturition cycles, was recorded. The following parameters, inter alia, were determined: • threshold pressure (TP, bladder pressure immediately before micturition), • bladder capacity (BC, residual volume after preceding micturition plus volume of the infused solution during the filling phase), • intercontraction interval (ICI, the interval of time between micturitions) • micturition pressure (MP, maximum bladder pressure during a micturition).
After three reproducible micturition cycles had been recorded as the pre-value, 2.5×10^−4 M oxyhemoglobin in the vehicle=0.9% NaCl were infused into the bladder. The action on the cystometric parameters was recorded for about 20 minutes. At the action maximum the mean of 3 micturition cycles was determined and shown as a percentage change compared with the pre-value (table 8).
The mark [2] stands for this setting: mean of at least 3 independent experiments.
[3] abbreviates: after OxyHb 2.5 × 10^−4 M, n = 5, average ± standard deviation.
[4] abbreviates: pre-value before OxyHb 2.5 × 10^−4 M, n = 5, average ± standard deviation.

Read-outs that look alike come from different tables or passages of the source.

Take `C[C@H]1CC[C@H](CN(C)C)[C@@](O)(c2cccc(O)c2)C1.Cl` [Compound 28, (+)-(1R,2R,5S)-3-(2-dimethylaminomethyl-1-hydroxy-5-methyl-cyclohexyl)-phenol, hydrochloride]: the minimal effective dose with naive female rats (mean of at least 2 experiments) amounted to 16.7 mg/kg.
Consider `CCC(O)(c1cccc(OC)c1)C1(CN(C)C)CCCCC1.Cl` (racemic) [Compound 13, (1RS)-1-(1-dimethylaminomethyl-cyclohexyl)-1-(3-methoxy-phenyl)-propan-1-ol, hydrochloride], for which, in the experiment with naive female rats (mean of at least 2 experiments), the minimal effective dose was 20 mg/kg.
For `COc1cccc([C@@]2(O)C[C@@H](O)CC[C@@H]2CN(C)C)c1.Cl` (racemic) [Compound 27, (1RS,3SR,6RS)-6-dimethylaminomethyl-1-(3-methoxy-phenyl)-cyclohexane-1,3-diol, hydrochloride], the minimal effective dose in the experiment with naive female rats (mean of at least 2 experiments) turned out to be 115 mg/kg.
On to `CC[C@](O)(c1ccc(Cl)c(Cl)c1)[C@H](C)CN(C)C.Cl` (racemic) [Compound 3, (2RS,3RS)-3-(3,4-dichlorophenyl)-1-dimethylamino-2-methyl-pentan-3-ol, hydrochloride], for which the “Lowest dose at which for the first time contractions were absent over a period of 10 minutes” value with naive female rats (mean of at least 2 experiments) stood at 23.3 mg/kg.
Take `CC[C@](OC(C)=O)(c1cccc(OC)c1)[C@H](C)CN(C)C.Cl` [Compound 12, (+)-(1R,2R)-acetic acid 3-dimethylamino-1-ethyl-1-(3-methoxy-phenyl)-2-methyl-propyl ester, hydrochloride]: in the experiment on naive female rats (mean of at least 2 experiments), the minimal effective dose amounted to 30 mg/kg.
`COc1cccc(C2(O)CCCCC2CN(C)C)c1` (racemic) [Compound 23, rac-tramadol, reference compound]: in the experiment with naive female rats (mean of at least 2 experiments), the minimal effective dose came out at 5.3 mg/kg. Besides, the “effect on bladder function (in words)” value in the experiment with rat is “positive effect on bladder function”.
Turning to `COc1cccc(C(O)(CCN(C)C)C(C)(C)C)c1.Cl` (racemic) [Compound 6, (3RS)-1-dimethylamino-3-(3-methoxy-phenyl)-4,4-dimethyl-pentan-3-ol, hydrochloride], in the experiment on naive female rats (mean of at least 2 experiments), the “Lowest dose at which for the first time contractions were absent over a period of 10 minutes” value amounted to 16.7 mg/kg.
As to `CCC1(c2cccc(O)c2)CCCCN(C)C1` (stereo not drawn) [meptazinol, reference compound], the minimal effective dose in the experiment on naive female rats (setting [2]) is 1 mg/kg.
For `CN(C)C[C@@H]1CCCC[C@H]1c1cccc(O)c1.Cl` [Compound 20, (−)-(1R,2R)-3-(2-dimethylaminomethyl-cyclohexyl)-phenol, hydrochloride], in the experiment on naive female rats (mean of at least 2 experiments), the minimal effective dose was 0.5 mg/kg.
On to `CCOC(=O)C1(c2ccccc2)CCC=CC1N(C)C` (stereo not drawn) [tilidine, reference compound], for which the minimal effective dose in the experiment on naive female rats (setting [2]) was 0.5 mg/kg.
As for `CN(C)C[C@H]1CCCC[C@@H]1c1cccc(O)c1.Cl` [Compound 19, (+)-(1S,2S)-3-(2-dimethylaminomethyl-cyclohexyl)-phenol, hydrochloride], in the experiment with naive female rats (mean of at least 2 experiments), the minimal effective dose came out at 0.1 mg/kg.
As to `CC[C@](O)(c1cccc(SC)c1)[C@H](C)CN(C)C.Cl` (racemic) [Compound 5, (2RS,3RS)-1-dimethylamino-2-methyl-3-(3-methylsulfanyl-phenyl)-pentan-3-ol, hydrochloride], the minimal effective dose in the experiment on naive female rats (mean of at least 2 experiments) was 2.3 mg/kg.
Still for that read-out and setting: with `C[C@H](CN(C)C)[C@@](C)(O)c1cccc(O)c1.Cl` [Compound 10, (+)-(1R,2R)-3-(3-dimethylamino-1-hydroxy-1,2-dimethyl-propyl)-phenol, hydrochloride] the figure was 0.2 mg/kg; with `CC[C@](O)(c1ccc(Cl)cc1)[C@H](C)CN(C)C.Cl` (racemic) [Compound 14, (2RS,3RS)-3-(4-chlorophenyl)-1-dimethylamino-2-methyl-pentan-3-ol, hydrochloride], 20 mg/kg.
Take oxyhaemoglobin [OxyHb]: in experiment [1] (OxyHb 2.5 × 10^−4 M alone), the “BC bladder capacity, change (diff) in comparison with the pre-value” is given as “diff: −29.3%”; the “ICI intercontraction interval, change (diff) in comparison with the pre-value” is “diff: −32.9%”; the “MP micturition pressure, change (diff.) in comparison with the pre-value” is given as “diff.: +64.4%”; the “TP threshold pressure, change (diff.) in comparison with the pre-value” is “diff.: +12.8%”. In experiment [1] (setting [3]), the “BC bladder capacity, after (a)” value is given as “a: 0.65 ± 0.06 ml”; the “ICI intercontraction interval, after (a)” value is reported as “a: 3.33 ± 0.18 min”; the “MP micturition pressure, after (a)” value is reported as “a: 97 ± 5 cm H2O”; the “TP threshold pressure, after (a)” value is “a: 9.84 ± 1.56 cm H2O”. For the same molecule, in experiment [1] (setting [4]), the “BC bladder capacity, before (b)” value is listed as “b: 0.92 ± 0.10 ml”; the “ICI intercontraction interval, before (b)” value was “b: 4.96 ± 0.33 min”; the “MP micturition pressure, before (b)” value is recorded as “b: 59 ± 8 cm H2O”; the “TP threshold pressure, before (b)” value is on record as “b: 8.72 ± 1.31 cm H2O”.
Take `CC[C@](O)(c1cccc(C(F)F)c1)[C@H](C)CN(C)C.Cl` (racemic) [Compound 4, (2RS,3RS)-3-(3-difluoromethyl-phenyl)-1-dimethylamino-2-methyl-pentan-3-ol, hydrochloride]: the minimal effective dose with naive female rats (mean of at least 2 experiments) came out at 1.7 mg/kg.
For `CN(C)C[C@H]1CC[C@@H](C(F)(F)F)C[C@]1(O)c1cccc(O)c1.Cl` (racemic) [Compound 29, (1RS,2RS,5RS)-3-(2-dimethylaminomethyl-1-hydroxy-5-trifluoromethyl-cyclohexyl)-phenol, hydrochloride], the minimal effective dose with naive female rats (mean of at least 2 experiments) was found to be 23.3 mg/kg.
On the same count and under the same terms, with `CN(C)C[C@H]1CCCC[C@]1(F)c1cccc(O)c1.Cl` [Compound 18, (+)-(1R,2R)-3-(2-dimethylaminomethyl-1-fluoro-cyclohexyl)-phenol, hydrochloride] the figure was 0.2 mg/kg.

These data come from patent publication US20050137194A1, “Combination of selected opioids with other active compounds for treatment of urinary incontinence” (Gruenenthal GmbH, priority 2002, published 2005).
